This series can be described thus: Photosensitivity screening assay (H2O2 by Amplex Ultra Red after light exposure). The class given is physicochemical. Conditions: 1 mM in 20 mM histidine acetate pH 5.5, four hours of light at 250 W/m^2. How it is done:
As a screening tool, antioxidant candidates were exposed to light for four hours at 250 W/m^2 and the resulting H2O2 formation was quantified by the Amplexassay. Specifically, antioxidants were prepared to 1 mM in 20 mM histidine acetate buffer at pH 5.5. The 1 mM antioxidant solutions were aliquoted into glass vials (2 mL/glass vial) and exposed to four hours of light at 250 W/m^2 in an Atlas SunTest CPS+ Xenon Test Instrument (Chicago, Ill.). Total UV dose was 90 watt-hours/square meter and total visible dose was 0.22 million lux hours over the 4-hour period. Control vials were wrapped in aluminum foil and treated similarly. The amount of hydrogen peroxide generated after exposure to light was measured using the Amplex® Ultra Red Assay (Invitrogen, Carlsbad, Calif.) following the manufacturer's recommended procedure. On addition of horseradish peroxidase (HRP), the dye reacted 1:1 stoichiometrically with H2O2, resulting in the production of fluorescent oxidation product resorufin. In this study, fluorescence readings were obtained using a Spectra Max M2 Micro-plate Reader (Molecular Devices, Sunnyvale, Calif.) with excitation and emission set at 560 nm and 590 nm, respectively. Final H2O2 concentrations were determined using a standard curve ranging from 0 μm to 20 μm.

Regarding `N[C@@H](Cc1c[nH]c2ccccc12)C(=O)O` [L-Trp, L-tryptophan], the “(H2O2 produced by Compound)/(H2O2 produced by L-Trp)” value was determined as 1.

The record behind these values is patent US11596620B2, “Formulations with reduced oxidation” (Genentech, Inc., priority 2013, dated 2023).
